Assay results from ChEMBL document CHEMBL1201862, “PubChem BioAssay data set” (2004).
“And” between values parts separate entries of the source, which are not always exact repeats. Equal values may be shown once.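 In this assay, cells in 96-well plates receive the compound at five concentrations for 48 hours. Endpoints are linearly interpolated between the surrounding concentrations. GI50 = concentration required for 50% inhibition of growth.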 The source made the active and inactive calls. No stated cut-off is given here; in the data, active = GI50 up to about 1.1 µM and inactive = higher.

Key:
Assay in all cases: growth of human tumour cells (NCI), 48 h
[1] = test system: A549
[2] = test system: ACHN
[3] = test system: COLO 205
[4] = test system: HOP-62
[5] = test system: IGROV-1
[6] = test system: NCI-H226
[7] = test system: NCI-H460
[8] = test system: OVCAR-4
[9] = test system: OVCAR-8
[10] = test system: RXF 393
[11] = test system: SK-MEL-28
[12] = test system: SK-MEL-5
[13] = test system: SN12C
[14] = test system: UACC-257
[15] = test system: UO-31
[16] = test system: A498
[17] = test system: HCT-15

SMILES | GI50 [1] | GI50 [2] | GI50 [3] | GI50 [4] | GI50 [5] | GI50 [6] | GI50 [7] | GI50 [8] | GI50 [9] | GI50 [10] | GI50 [11] | GI50 [12] | GI50 [13] | GI50 [14] | GI50 [15] | GI50 [16] | GI50 [17]
O=C(CC(=O)n1nc(-c2ccccc2)c(/N=N/c2ccc([N+](=O)[O-])cc2)c1-c1ccccc1)Nc1ccc(Cl)cc1 | 15.9 µM (inactive) | 2.07 µM (inactive) | 18 µM (inactive) | 14.5 µM (inactive) | 36.4 µM (inactive) | 22.4 µM (inactive) | 30.1 µM (inactive) | 34.2 µM (inactive) | 35.8 µM (inactive) | 19.5 µM (inactive) | 17.9 µM (inactive) | 3.23 µM (inactive) | 42.1 µM (inactive) | 34.8 µM (inactive) | 11.9 µM (inactive) |  | 
COc1ccc2nc(NC(=O)C(=O)CC(=O)c3ccc([N+](=O)[O-])cc3)sc2c1 | > 100 µM (inactive) | > 100 µM (inactive) | > 100 µM (inactive) | > 100 µM (inactive) | > 100 µM (inactive) | > 100 µM (inactive) | > 100 µM (inactive) | > 100 µM (inactive) | > 100 µM (inactive) |  | > 100 µM (inactive) | > 100 µM (inactive) | > 100 µM (inactive) | > 100 µM (inactive) | 50.7 µM (inactive) | > 100 µM (inactive) | 
CC(C)C(=O)/C=C/c1ccc(Cl)c(Cl)c1 | 21 µM (inactive) | 18.5 µM (inactive) | 24.9 µM (inactive) |  | 20 µM (inactive) |  | 22.2 µM (inactive) | 34.9 µM (inactive) | 18.9 µM (inactive) | 16.7 µM (inactive) | 18.7 µM (inactive) | 14.8 µM (inactive) | 15 µM (inactive) | 21.5 µM (inactive) | 14.2 µM (inactive) | 24.8 µM (inactive) | 
C[N+](C)(C)CCc1ccccc1 | > 100 µM (inactive) | > 100 µM (inactive) | > 100 µM (inactive) | > 100 µM (inactive) | > 100 µM (inactive) | > 100 µM (inactive) | > 100 µM (inactive) | > 100 µM (inactive) | > 100 µM (inactive) | > 100 µM (inactive) | > 100 µM (inactive) | > 100 µM (inactive) | > 100 µM (inactive) | > 100 µM (inactive) | > 100 µM (inactive) | > 100 µM (inactive) | > 100 µM
CN(C)/N=N/c1ccccc1 | 68.5 µM (inactive) | 25.9 µM (inactive) | > 100 µM (inactive) |  | 34.3 µM (inactive) | > 100 µM (inactive) | 98.9 µM (inactive) | > 100 µM (inactive) | > 100 µM (inactive) | > 100 µM (inactive) | > 100 µM (inactive) | > 100 µM (inactive) | > 100 µM (inactive) |  | 26.8 µM (inactive) | > 100 µM (inactive) | 16.7 µM
COc1cc2c(cc1C)[n+]([O-])c(C)c(C(=O)C/C(=N/NC(=O)C[N+](C)(C)C)C(=O)Nc1cccc(Cl)c1C)[n+]2[O-] | > 100 µM (inactive) | > 100 µM (inactive) | > 100 µM (inactive) | > 100 µM (inactive) | > 100 µM (inactive) | > 100 µM (inactive) | > 100 µM (inactive) | > 100 µM (inactive) | > 100 µM (inactive) | > 100 µM (inactive) | > 100 µM (inactive) | > 100 µM (inactive) | > 100 µM (inactive) | > 100 µM (inactive) | > 100 µM (inactive) | > 100 µM (inactive) | > 100 µM
Cc1c2cc[n+](C)cc2c(C)c2c1[nH]c1ccc(O)c(OCC(F)(F)F)c12 | 1.87 µM (inactive) |  | 1.77 µM (inactive) | 1.12 µM (inactive) | 5.86 µM (inactive) | 0.432 µM (active) | 1.51 µM (inactive) | 1.26 µM (inactive) | 1.85 µM (inactive) |  | 5.65 µM (inactive) | 1.51 µM (inactive) | 0.34 µM (active) | 6.31 µM (inactive) | 7.06 µM (inactive) | 10.8 µM (inactive) | 
NNC(=O)CC(=O)Nc1ccccc1F | > 100 µM (inactive) | > 100 µM (inactive) | > 100 µM (inactive) | > 100 µM (inactive) | > 100 µM (inactive) | > 100 µM (inactive) | > 100 µM (inactive) | > 100 µM (inactive) | > 100 µM (inactive) | > 100 µM (inactive) | > 100 µM (inactive) | > 100 µM (inactive) | > 100 µM (inactive) | > 100 µM (inactive) | > 100 µM (inactive) | > 100 µM (inactive) | > 100 µM
COc1c(Cl)c(Cl)c(OC)c2c1C(=O)C=CC2=O | 88.7 µM (inactive) | 15.1 µM (inactive) | 16.2 µM (inactive) |  | 24.7 µM (inactive) | 33.5 µM (inactive) | 37.8 µM (inactive) | 15.3 µM (inactive) | 17.1 µM (inactive) | 17.1 µM (inactive) | 17.7 µM (inactive) | 34.9 µM (inactive) | 23.4 µM (inactive) | 18.1 µM (inactive) | 17.8 µM (inactive) | > 100 µM (inactive) | 35.6 µM
O=C(Cc1ccc(F)cc1)NC1=C(Cl)C(=O)c2ccccc2C1=O | 3.62 µM (inactive) | 1.47 µM (inactive) | 3.66 µM (inactive) | 10 µM (inactive) | 2.61 µM (inactive) | 3.4 µM (inactive) | 3.47 µM (inactive) | 2.06 µM (inactive) | 1.92 µM (inactive) | 1.05 µM (active) | 4.05 µM (inactive) | 2.92 µM (inactive) | 3.38 µM (inactive) | 2.48 µM (inactive) | 2.51 µM (inactive) |  | 1.31 µM
CCN(CC)CCC(=O)N1CCc2c([nH]c3ccccc23)C1c1cccnc1 (stereo not drawn) | > 100 µM (inactive) | > 100 µM (inactive) |  | > 100 µM (inactive) | > 100 µM (inactive) |  | > 100 µM (inactive) | > 100 µM (inactive) | > 100 µM (inactive) |  | > 100 µM (inactive) | > 100 µM (inactive) | > 100 µM (inactive) | > 100 µM (inactive) | > 100 µM (inactive) | > 100 µM (inactive) | > 100 µM
Cc1cc(C)c(C(=O)C(C)C(c2ccccc2)c2ccc(Cl)cc2)c(C)c1 (stereo not drawn) | > 100 µM (inactive) | > 100 µM (inactive) and 91.8 µM (inactive) | > 100 µM (inactive) | > 100 µM (inactive) | > 100 µM (inactive) | > 100 µM (inactive) | > 100 µM (inactive) | 49.4 µM (inactive) and 67.6 µM (inactive) | > 100 µM (inactive) | > 100 µM (inactive) and 77.6 µM (inactive) | > 100 µM (inactive) | > 100 µM (inactive) | > 100 µM (inactive) | 44.2 µM (inactive) and 38.5 µM (inactive) | 50.8 µM (inactive) |  | > 100 µM and 51.5 µM
CC(SC(=S)N1CCOCC1)c1cc2oc(=O)n(C)c2cc1Cl (stereo not drawn) | 42.2 µM (inactive) | > 100 µM (inactive) | > 100 µM (inactive) | > 100 µM (inactive) | > 10 µM (inactive) |  | > 100 µM (inactive) | > 100 µM (inactive) | > 100 µM (inactive) | > 100 µM (inactive) | > 100 µM (inactive) | 62.7 µM (inactive) | > 100 µM (inactive) | 74.5 µM (inactive) | > 100 µM (inactive) |  | > 100 µM
COc1ccc(C/C(=N/O)C(=O)NCCc2cc(Br)c(OCCCN(C)C)c(Br)c2)cc1Br [APLYSAMINE 2] | 20 µM (inactive) | 15.6 µM (inactive) | 18.8 µM (inactive) | 15.8 µM (inactive) |  |  | 17.3 µM (inactive) | 17 µM (inactive) | 21.9 µM (inactive) | 21.6 µM (inactive) | 17.7 µM (inactive) |  | 18.5 µM (inactive) | 16.1 µM (inactive) | 23.1 µM (inactive) |  | 
CCCN(CCC)c1c([N+](=O)[O-])cc(C(=O)N(CCO)CCO)cc1[N+](=O)[O-] | > 100 µM (inactive) | > 100 µM (inactive) | > 100 µM (inactive) |  | > 100 µM (inactive) | > 100 µM (inactive) | > 100 µM (inactive) | > 100 µM (inactive) | > 100 µM (inactive) |  | > 100 µM (inactive) | > 100 µM (inactive) | > 100 µM (inactive) | > 100 µM (inactive) | > 100 µM (inactive) |  | > 100 µM
CCOC(=O)C(C(O)c1ccc([N+](=O)[O-])cc1)P(=O)(OCC)OCC (stereo not drawn) | > 100 µM (inactive) | > 100 µM (inactive) |  | > 100 µM (inactive) | > 100 µM (inactive) | > 100 µM (inactive) | > 100 µM (inactive) | > 100 µM (inactive) | 95.1 µM (inactive) | 36.5 µM (inactive) | > 100 µM (inactive) | 99.8 µM (inactive) | > 100 µM (inactive) |  |  | > 100 µM (inactive) | > 100 µM
C=C1C(=O)OC2C1C(OC(=O)/C(=C/C)COC(C)=O)CC1(CO1)C1C(OC(=O)/C(=C/C)CO)C=C(C)C21 (stereo not drawn) | 6.9 µM (inactive) | 1.9 µM (inactive) | 1.09 µM (active) |  | 1.89 µM (inactive) | 1.65 µM (inactive) | 6.98 µM (inactive) | 2.86 µM (inactive) | 0.564 µM (active) | 0.394 µM (active) | 1.82 µM (inactive) | 2.29 µM (inactive) | 1.82 µM (inactive) | 2.04 µM (inactive) | 3.14 µM (inactive) | 3.03 µM (inactive) | 1.59 µM
C[N+](C)(C)CC(=O)N/N=C(/C(=O)Nc1ccc(Br)cc1)C1C(=O)NC(=O)NC1=O | > 100 µM (inactive) | > 100 µM (inactive) | > 100 µM (inactive) | > 100 µM (inactive) | > 100 µM (inactive) | > 100 µM (inactive) | > 100 µM (inactive) | > 100 µM (inactive) |  | > 100 µM (inactive) | > 100 µM (inactive) | > 100 µM (inactive) | > 100 µM (inactive) | > 100 µM (inactive) | > 100 µM (inactive) | > 100 µM (inactive) | > 100 µM
